From article PMC11085134, “Chemical Constituents and Anticancer Activities of Marine-Derived Fungus Trichoderma lixii” (Molecules, 2024)
“Also recorded” adds a separate entry of the source. Like-named read-outs stand apart in the source and are kept apart here.

Experiments:
[1] = test system: PANC-1 cancer cells; assay: Anti-austerity assay (cytotoxicity under glucose starvation vs normal glucose); details: for Anti-Austerity Activity Selectivity: Glucose − versus Glucose +; for Selective index (SI): IC50 high glucose versus no glucose media
Experimental: Human myeloma KMS-11, colorectal HT-29, and pancreatic PANC-1 cancer cells were obtained from the Japanese Collection of Research Bioresources (JCRB) Cell Bank (JCRB1179, Osaka, Japan), the American Type Culture Collection (ATCC, HTB-38, Manassas, VA, USA), and the Riken BioResource Research Center (BRC, RCB2095, Ibaraki, Japan), respectively. KMS-11, HT-29, and PANC-1 were cultured in Roswell Park Memorial Institute (RPMI)-1640 medium (Nacalai Tesque, Inc.), McCoy’s 5A medium (Gibco Thermo Fisher Scientific Inc., Waltham, MA, USA), and Dulbecco’s Modified Eagle Medium (DMEM) high glucose (Nacalai Tesque, Inc.), respectively. The culture media contained 10% fetal bovine serum (FBS, Equitech-Bio Inc., Kerrville, TX, USA) and 50 μg/mL kanamycin (Fujifilm Wako Pure Chemical Corporation, Osaka, Japan). To induce cell adaptation to nutrient starvation, PANC-1 was cultured in DMEM no glucose (Nacalai Tesque, Inc.) containing 10% dialyzed FBS (Equitech-Bio Inc.) and 50 μg/mL kanamycin. Human umbilical vein endothelial cells (HUVEC) were obtained from Kurabo Industries Ltd., Osaka, Japan (KE-4109) and cultured in HuMedia-EB2 (Kurabo Industries Ltd.) supplemented with HuMedia-EG (2% FBS, 10 ng/mL human epidermal growth factor, 1.34 μg/mL hydrocortisone, antibacterial agents, 50 μg/mL gentamicin and 50 ng/mL amphotericin B, 5 ng/mL human fibroblast growth factor-B, and 10 μg/mL heparin). Cells were incubated in a humidified incubator at 37 °C in an atmosphere of 5% CO2.
The anti-austerity activity against PANC-1 cell line was investigated by a WST-8 based assay according to the method described above. PANC-1 cells were plated in a 96-well flat bottom plate at a high density of 10,000 cells/100 μL/well in a DMEM high glucose medium overnight. The medium was removed, washed with phosphate-buffered saline (PBS, Nissui Pharmaceutical Co., Ltd., Tokyo, Japan) twice, and then replaced with either DMEM high glucose or DMEM no glucose. After incubation for 12 h, crude extracts (final concentration 100 μg/mL) or serially diluted compounds were added, and the cells were incubated for an additional 12 h. […] Selective index (SI) was based on the difference between the IC50 values obtained from the high glucose and no glucose media. Antimycin A was used as a positive control.

[2] = test system: KMS-11 human myeloma cell line; assay: Antiproliferative WST-8 assay, KMS-11; format: cell-based; details: read-out: Antiproliferative Activity (IC50 ± SE) KMS-11
Text: (§1) The assessment of antiproliferative effects is a fundamental in vitro assay in the early stages of drug discovery for the screening of potential anticancer compounds that merit further investigation and development for their therapeutic potential in the fight against cancer. The antiproliferative activity of all isolated compounds against three cancer cell lines (KMS-11, HT-29, and PANC-1) was examined by WST-8 based assay according to the manufacturer’s instructions.
(§2) The antiproliferative activity against cancer and normal cell lines was investigated by a WST-8 based assay. […] Compounds to be tested were dissolved in DMSO for stock solution (20 μg/mL) and the final concentration of DMSO was 0.5%. Then, 100 μL of corresponding medium containing 10% WST-8 (Nacalai Tesque, Inc.) was added and incubated for up to 4 h. The absorbance of the formazan products was measured at 450 nm using an iMark^TM microplate reader (Bio-Rad Laboratories, Inc. Hercules, CA, USA). […] Cisplatin (Fujifilm Wako Pure Chemical Corporation) was used as a positive control.

[3] = test system: HT-29 human colorectal cell line; assay: Antiproliferative WST-8 assay, HT-29; format: cell-based; details: read-out: Antiproliferative Activity (IC50 ± SE) HT-29
Text: as §1, §2

[4] = test system: PANC-1 human pancreas cell line; assay: Antiproliferative WST-8 assay, PANC-1; format: cell-based; details: read-out: Antiproliferative Activity (IC50 ± SE) PANC-1
Text: as §1, §2

[5] = test system: HUVEC (human umbilical vein endothelial cells); assay: Antiproliferative WST-8 assay, HUVEC; format: cell-based; details: 48 h, normal cell line, read-out: Antiproliferative Activity (IC50 ± SE) HUVEC
Experimental: The antiproliferative activity of all eleven isolated compounds against normal cell line HUVEC was also examined by WST-8 based assay (Table 2). […] Further extensive structural modifications and in-depth structure–activity relationship studies are required to enhance efficacy and reduce the side effects on normal cells.
as §2

[6] = test system: KMS-11, HT-29, and PANC-1 cancer cell lines; assay: Antiproliferative activity, summary over the three cancer cell lines; format: cell-based, human; details: for IC50: Homo sapiens, 48 h, KMS-11, HT-29 and PANC-1, read-out: IC50, antiproliferative, over all tested cancer cell lines
Text: as §1, §2

[7] = test system: complex II in the mitochondrial electron transport chain; set-up: method as in PMID 31435860; details: cited from earlier work
[8] = set-up: method as in PMID 31030449, PMID 36005532; details: cited from earlier work
[9] = set-up: method as in PMID 31030449, PMID 36005532; details: cited from earlier work; remark: listed apart in the source
[10] = test system: mouse lymphoma L5178Y cell line; set-up: method as in earlier work; details: at 28 μM; cited from earlier work
[11] = test system: human cervical HeLa; set-up: method as in PMID 29144133; details: at 50 μM; cited from earlier work
[12] = test system: colon HCT-116; set-up: method as in PMID 29144133; details: at 50 μM; cited from earlier work
[13] = test system: breast MCF-7; set-up: method as in PMID 29144133; details: at 50 μM; cited from earlier work
[14] = test system: lung A549; set-up: method as in PMID 29144133; details: at 50 μM; cited from earlier work
[15] = test system: leukemia K562; set-up: method as in PMID 29144133; details: at 50 μM; cited from earlier work
[16] = test system: leukemia HL-60; set-up: method as in PMID 29144133; details: at 50 μM; cited from earlier work
[17] = set-up: method as in PMID 25659618; details: oxygen-labile conjugated diene units; cited from earlier work
[18] = test system: Escherichia coli; set-up: method as in PMID 26728965, PMID 32676071, PMID 32077325, doi:10.1007/s10600-022-03814-7; details: cited from earlier work
[19] = test system: complex I in helminth mitochondria; details: cited from earlier work
[20] = Homo sapiens, PANC-1, 12 h, read-out: Anti-Austerity Activity (IC50 ± SE) Glucose +
[21] = Homo sapiens, PANC-1, 12 h, read-out: Anti-Austerity Activity (IC50 ± SE) Glucose −

| Structure (SMILES) | Anti-Austerity Activity Selectivity [1] | IC50 [1, 20] [µM] | IC50 [1, 21] [µM] | Selective index (SI) [1] | IC50 ([2]; Homo sapiens, KMS-11, 48 h) [µM] | IC50 ([3]; Homo sapiens, HT-29, 48 h) [µM] | IC50 ([4]; Homo sapiens, PANC-1, 48 h) [µM] | IC50 ([5]; Homo sapiens, HUVEC) [µM] | IC50 [6] [µM] | other results |
| --- | --- | --- | --- | --- | --- | --- | --- | --- | --- | --- |
| CCCCCC[C@H]1C(=O)O[C@H](C)[C@H](NC(=O)c2cccc(NC=O)c2O)C(=O)O[C@@H](C)[C@@H]1OC(=O)CC(C)C [Antimycin A, reference compound] | selective | > 300 | 0.0162 ± 0.00026 | ≥ 18,480 |  |  |  |  |  |  |
| N.N.[Cl][Pt][Cl] [Cisplatin, reference compound] |  |  |  |  |  |  |  |  |  | IC50 ([2]; 48 h): 4.91 ± 1.06 µM; IC50 ([3]; 48 h): 10.6 ± 0.83 µM; IC50 ([4]; 48 h): 28.6 ± 3.43 µM; IC50 [5]: 13.7 ± 2.57 µM; IC50 ([1]; read-out: Anti-Austerity Activity (IC50 ± SE) Glucose +, 12 h, normal glucose (DMEM high glucose)): > 100 µM; IC50 ([1]; read-out: Anti-Austerity Activity (IC50 ± SE) Glucose −, 12 h, glucose starvation (DMEM no glucose)): > 100 µM; IC50 ([1]; read-out: IC50 against PANC-1 under both glucose starvation and normal glucose conditions, 12 h, both Glucose − and Glucose +): > 100 µM |
| COc1ccc2cc(NC(=O)C3=NO[C@H]4[C@H](O)C=C[C@@H](O)[C@@]4(O)C3)c(=O)oc2c1OC [Compound 1, trichodermamide A] |  | > 100 | > 100 |  | > 100 | > 100 | > 100 | > 100 |  | IC50 ([1]; Homo sapiens, PANC-1, 12 h, read-out: IC50 against PANC-1 under both glucose starvation and normal glucose conditions): > 100 µM; Antiproliferative activity in words ([6]; all tested cell lines): completely inactive |
| COc1ccc2cc(NC(=O)C3=NO[C@H]4[C@H](O)C=C[C@@H](Cl)[C@@]4(O)C3)c(=O)oc2c1OC [Compound 2, trichodermamide B] | did not display selectivity; also recorded: not selective | 11.6 ± 1.59 | 17.8 ± 4.75 |  | 1.38 ± 0.12 | 0.73 ± 0.12 | 3.58 ± 0.32 | 1.69 ± 0.26 | 0.7 to 3.6 |  |
| COc1ccc2cc(NC(=O)[C@@]34C[C@@]5(O)C(ON3)[C@H](O)C=C[C@H]5S4)c(=O)oc2c1OC (stereo partly shown) [Compound 3, aspergillazine A] | selective | > 400 | 75.6 ± 4.08 | ≥ 5 | 38 ± 7.72 | 22.2 ± 3.09 | 50.3 ± 4.21 | 26.2 ± 5.51 |  |  |
| COc1ccc(C2SSC34CC5(O)C(Cl)C=CC(O)C5ON3C(=O)C2NC4=O)c(O)c1OC (stereo not shown) [Compound 4, DC1149B] | selective | 213 ± 4.07 | 22.4 ± 2.5 | 10 | 7.6 ± 0.4 | 39.2 ± 4.6 | 24.7 ± 4.44 | 6.94 ± 0.86 |  | Inhibition of complex II in the mitochondrial electron transport chain [7]: inhibition |
| CC(C)[C@@H](C)/C=C/[C@@H](C)[C@H]1CC[C@@H]2[C@]1(C)CC[C@H]1[C@]23C=C[C@]2(C[C@@H](O)CC[C@]12C)OO3 [Compound 5, ergosterol peroxide] |  | > 100 | > 100 |  | > 100 | > 100 | > 100 | > 100 | > 100 |  |
| COc1cc(O)c2c(=O)c(C)c(C)oc2c1 [Compound 8, 5-hydroxy-2,3-dimethyl-7-methoxychromone] |  | > 100 | > 100 |  | > 100 | > 100 | > 100 | > 100 | > 100 | Antimicrobial activity [8]: weak or no; DPPH scavenging activity [9]: weak or no |
| CCC(C)C=CC=C(C)CC(C)C=CC=CC1OC(=O)C(O)C2OC12C (stereo not shown) [Compound 9, nafuredin A] | selective | 76.7 ± 3.22 | 49 ± 1.31 | 2 | 6.9 ± 1.84 | 11.9 ± 0.55 | 15.3 ± 0.44 | 2.45 ± 0.16 | 6.9 to 15.3 | Cytotoxicity [10]: no cytotoxicity; Cytotoxicity [11]: no cytotoxicity; Cytotoxicity [12]: no cytotoxicity; Cytotoxicity [13]: no cytotoxicity; Cytotoxicity [14]: no cytotoxicity; Cytotoxicity [15]: no cytotoxicity; Cytotoxicity [16]: no cytotoxicity; Stability in air [17]: unstable in air; Antibacterial activity against Escherichia coli [18]: exhibited antibacterial activity; Inhibition of complex I in helminth mitochondria [19]: selective inhibition |
